# Data: patent publication US20260007639A1, “COMPOUNDS FOR THE TREATMENT OF NEUROMUSCULAR DISORDERS” (NMD PHARMA A/S, priority 2017, published 2026)
# Read-outs that look alike come from different tables or passages of the source.
# Experiments:
# rat soleus muscles [1] = assay: Mg2+ concentration required to depress nerve-stimulated force by 50% (Kd,Mg2+), combination with 3,4-AP (Table 5); conditions: pre-incubation with 10 μM 3,4-AP
# Procedure: Muscles from 4-week-old rats were stimulated to contract by activating the motor nerve with short duration pulses in field stimulation. Muscles contracted every 10 min for 2 s in response to 30 Hz stimulation. Four different experimental conditions were used. […] FIG. 6C similar to FIG. 6A but this muscle had been pre-incubated with 3,4-AP. […] The force integral (AUC) was determined at each extracellular Mg^2+ concentration. AUC was plotted against Mg^2+ concentration and the data was fitted to a sigmoidal function. This provided the extracellular Mg^2+ concentration that was required to reduce the nerve-stimulated force to 50% (Mg50) under the four different conditions (see Table 4).
# While the use of tubocurarine mimics conditions with reduced neuromuscular transmission due to post-synaptic dysfunction (myasthenia gravis, neuromuscular blockade), the experiments with elevated extracellular Mg^2+ mimics conditions with pre-synaptic dysfunction akin to a range of neuromuscular disorders including Lambert Eaton syndrome, motor neuron disorders and polyneuropathy. […] Based on this it was determined whether recovery of nerve-stimulated force at elevated extracellular Mg^2+ with CIC-1 inhibiting compounds could be added to force recovery with 3,4-AP. […] To quantify the effect of compounds on Mg^2+ sensitivity the force at the different Mg^2+ concentrations was determined. […]
# rat soleus muscles [2] = assay: Tubocurarine concentration required to depress nerve-stimulated force by 50% (Kd,tub), combination with neostigmine or pyridostigmine (Table 4); conditions: pre-incubation with 50 μM C8, 10 nM neostigmine or both
# Procedure: Muscles from 4-week-old rats were stimulated to contract by activating the motor nerve with short duration pulses in field stimulation. Muscles contracted every 10 min for 2 s in response to 30 Hz stimulation. Four different experimental conditions were used. […] After this pre-incubation, increasing concentrations of tubocurarine were added to the bath solutions with 60 min (corresponding to six contractions) between each increase in tubocurarine. […] FIG. 5C similar to FIG. 5A but this muscle had been pre-incubated with neostigmine. […] The force integral (AUC) was determined at each tubocurarine concentration. Such AUC determinations were plotted against tubocurarine concentration for each muscle.
# CIC-1 is a novel target in treatment of neuromuscular complications and it was therefore explored whether this approach for symptomatic treatment could be used in combination with existing symptomatic treatment approaches. […] To quantify the effect of compounds on tubocurarine sensitivity, the force at the different tubocurarine concentrations was determined. In plots of nerve-stimulated force against tubocurarine concentration (FIG. 5E) Kd, tub was determined by fitting four parameter sigmoidal functions to the data and the Kd, tub for the different compounds have been collected in Table 4.
# rat soleus muscles [3] = assay: Recovery of nerve-stimulated force in isolated rat soleus muscles with ACh receptors inhibited by 2 μM rocuronium; conditions: 50 μM C8 added in the presence of 2 μM rocuronium; 8 muscles; p<0.01
# Procedure: In a separate series of experiments with 8 isolated rat soleus muscles, ACh receptors were inhibited using 2 μM rocuronium, which is a clinically used neuromuscular blocking agent. Under these conditions the nerve-stimulated force was reduced to 51±5% of force before rocuronium. […] This illustrates the potential of these compounds to be used as reversal agents.
# [4] = Pharmacokinetic analysis of a single I.P. dose of C8 in rats (Table 6); format: in vivo, Sprague-Dawley rats; conditions: one-bolus I.P. injection
# Procedure: This part of the study was performed by Pipeline Biotech A/S (Spørring, Denmark). […] Plasma concentrations (free and bound) were determined by OnTarget Chemistry (Uppsala, Sweden, Project No.: PB243-001).
# Before conducting in vivo experiments with animal models of myasthenia gravis, some pharmacokinetic details were obtained for C8 in response to one-bolus I.P. injection.
# human muscles = conditions: 150 μM C8; isolated human muscle
# rat soleus muscle = format: cell-based; conditions: μ-conotoxin GiiiB present
# rat soleus muscles [5] = assay: Recovery of nerve-stimulated force in isolated rat soleus muscles exposed to sub-maximal tubocurarine (Table 1); conditions: % change in AUC compared to AUC before addition, after 40 min in tubocurarine
# Procedure: The motor nerve was stimulated every 10 min for 2 s with 30 Hz with field stimulation using short duration pulses. […] Traces are shown before addition tubocurarine, after 40 min with tubocurarine, and after 110 min tubocurarine. […] This recovery of force was used in Table 1.
# Experiments were performed using rat soleus muscles from either young (4-wk-old) or adult Wistar rats (12-14-week-old). Animal handling, killing and isolation of muscle is described elsewhere All experiments were performed using normal Krebs-Ringer bicarbonate solution (NKR). In solutions with elevated Mg^2+, MgCl^2 was added to NKR-solution causing minor increases in osmolarity and ionic strength. In solutions with elevated K^+, 4 mM NaCl was replaced by 4 mM KCl in the NKR.
# In all contraction experiments, isometric force production was determined and force produced during contractions was quantified by measuring the integral of the force response (AUC). Stimulation and force recordings have been described elsewhere. […] In these latter experiments, extracellular recordings of action potentials (M-waves) could be measured without temporal overlap with stimulation artefacts.
# The aim was to find compounds that by inhibition of CIC-1 channels can recover nerve-stimulated force under conditions of fatigue including conditions where fatigue is caused by compromised neuromuscular transmission. Neuromuscular transmission dysfunction can develop because of both pre- and/or post-synaptic complications in connection with a disorder or as part of neuromuscular blockade during/after surgery. In the initial series of drug testing, experiments were performed with isolated muscles in the presence of sub-maximal ACh receptor antagonist tubocurarine. Since the inclusion of tubocurarine caused a partial loss of neuromuscular transmission this experiment mimics the conditions in myasthenia gravis and neuromuscular blockade. To mimic conditions with pre-synaptic complication (Lambert Eaton syndrome, motor neuron disorder, polyneuropathy) the intact nerve-muscle preparations were incubated at elevated extracellular Mg^2+, which is known to suppress release of ACh from nerve terminals of motor neurons. […]
# For comparison with the muscle only exposed to tubocurarine (grey trace), the two traces have been overlaid. […] For comparison, muscles only exposed to tubocurarine have been included. The dotted line indicates the recovery of force with C8 when compared to the force production before its addition. This value was used in Table 1 for evaluation of the efficacy of the different compounds in recovering force.
# rat soleus muscles [6] = assay: Recovery of nerve-stimulated force in isolated rat soleus muscles exposed to 3.5 mM Mg2+ (Table 2); conditions: rat soleus exposed to 3.5 mM Mg2+, force before addition 38 ± 6 % of control
# rats [7] = assay: Rotarod running performance in passive myasthenia gravis induced in rats with MAB35 monoclonal antibody; format: in vivo, rat; conditions: rats with stable reduction in performance after MAB35, versus sham
# Procedure: Prior to I.P. injection of MAB35 the animals had been familiarized to the rotarod over three training sessions distributed over two days. […] After this treatment performance was monitored every second hour. * Indicates significant different as evaluated using student t-test.
# (§1) In both series of experiments, running performance was tested on a rotarod using a protocol where the rod was accelerated gradually over a 5 min period, and the running time and covered distance before falling off the rod were measured.
# In experiments with MAB35, animals were first familiarized with the rotarod over two consecutive days and then injected I.P. with MAB35. After injection, rotarod performance was then again monitored regularly over the consecutive two days. […] A considerable number of animals, however, became moribund failing to walk and they had altered ventilation (rapid) and pronounced ptosis. These animals were not included in experiments.
# In the last series of experiments, myasthenia gravis was mimicked in rats by inducing an immunological reaction against the motor endplate of muscle fibers using monoclonal antibody against the nicotinic ACh receptor in muscle fibers. Again the animals had been familiarized to the rotarod before the MAB35 injection. […] From FIG. 10 it can be seen that upon injection sham treatment the performance further declined.
# rats [8] = assay: Rotarod running performance of rats after I.P. tubocurarine (myasthenia like phenotype); format: in vivo, rat; conditions: C8 20 mg/kg I.P. 2 hrs before tubocurarine 0.13 mg/kg I.P.; tested 21 minutes after tubocurarine
# Procedure: FIG. 9A illustrates the design of the experiments. Prior to Day One the animals had been familiarized to the rotarod in three training sessions distributed over two days.
# as §1
# Experiments with tubocurarine were carried out over two days, and on each day the effect of tubocurarine on running performance was tested. On the first day only tubocurarine was injected. […] On the second day, the animals were first allowed to run on the rotarod, and all animals performed normally. […] The allocation of the animals into the two groups (C8 or sham) was random and unknown to the experimenter (blinded experimental design).
# In the first series of in vivo experiments, myasthenia gravis was simply mimicked by I.P. injection of tubocurarine (0.13 mg/kg) in animals that had been familiarized to running on the rotarod. On the first of two consecutive days, tubocurarine was injected I.P. and the running performance of the animal was tested 21 minutes after this injection. On the second day of experimentation, the animals first performed a test run to ensure that they were no longer affected by the tubocurarine injected the day before. […]
smiles,measurement,setting,value
"Nc1ccncc1N [3,4-AP, 3,4-diaminopyridine]",nerve-stimulated force at elevated Mg2+ compared to control,rat soleus muscles [1],remain elevated
"C[C@H](Oc1ccc(Br)cc1)C(=O)O [Compound C8, (2S)-2-(4-bromophenoxy)propanoic acid]",nerve-stimulated force at different tubocurarine concentrations compared to control,rat soleus muscles [2],elevated nerve-stimulated force
same,"nerve-stimulated contractile force, % of force before rocuronium",rat soleus muscles [3],81±4%
same,AUC 0-inf_obs,[4],205.381 µg·h/mL
same,AUC 0-t,[4],203.635 µg·h/mL
same,C0,[4],24533 ng/mL
same,CI_obs,[4],48.69 mL/h
same,Cmax,[4],44600 ng/mL
same,Tmax,[4],0.5 h
same,VD_obs,[4],259.62 mL
same,t1/2,[4],3.70 h
same,contractile force at elevated K+ and TTX,human muscles,markedly recovery
same,EPP amplitude compared to control conditions,rat soleus muscle; 10 μM C8,significantly larger EPPs
same,EPP amplitude compared to control conditions,rat soleus muscle; 25 μM C8,significantly larger EPPs
same,50 μM % change after addition (AUC force),rat soleus muscles [5]; 50 μM compound,16%
same,150 μM % change after addition (AUC force),rat soleus muscles [5]; 150 μM compound,23%
same,50 μM % change after addition (AUC force),rat soleus muscles [6]; 50 μM compound,13 ± 4%
same,100 μM % change after addition (AUC force),rat soleus muscles [6]; 100 μM compound,26 ± 5%
same,rotarod running performance after treatment,rats [7]; C8 20 mg/kg,decline was reduced
same,rotarod running performance after treatment,rats [7]; C8 30 mg/kg,clear recovery of performance
same,increase in running performance (distance on rotarod) on the second day compared to the first day,rats [8],around 150%
"CN(C)C(=O)Oc1cccc([N+](C)(C)C)c1 [neostigmine, reference compound]",nerve-stimulated force at different tubocurarine concentrations compared to control,rat soleus muscles [2],elevated nerve-stimulated force
